BindingDB's records for doi:10.1021/jm00006a008 (Glaxo Research Institute, 1995)

Test: Inhibitory concentration against topoisomerase I obtained from calf thymus

SMILES: CCOC(=O)c1c2c(nc3cc4c(cc13)OCCO4)-c1cc3c(c(=O)n1C2)COC(=O)C3(O)CC (stereo unspecified) [ethyl 8-ethyl-8-hydroxy-9,12-dioxo-2,3,8,9,12,14-hexahydro-11H-[1,4]dioxino[2,3-g]pyrano[3',4':6,7]indolizino[1,2-b]quinoline-15-carboxylate]
- IC50: 0.7 µM
